How the values were obtained:
[1] = system: recombinant NL4-3 virus (nef section replaced with Renilla luciferase gene) in MT-2 cells; test: HIV cell culture assay (antiviral activity, luciferase readout); type: cell-based; conditions: MT-2 cells infected for 4-5 days with recombinant NL4-3 luciferase virus
Outline: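 Serially diluted compounds were present throughout a 4-5 day infection of MT-2 cells by recombinant NL4-3 whose nef region partly encodes Renilla luciferase. Antiviral activity was taken from live-cell luciferase signal, with the 50% effective concentration fitted by the exponential median effect equation.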

[2] = Compound cytotoxicity, XTT-based colorimetric assay; type: cell-based; conditions: human, uninfected MT2 cells
Outline: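 XTT colorimetric read-out on day 4 gave CC50 values, using MT2 cells left uninfected but otherwise handled as in the antiviral assay.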

| Structure (SMILES) | CC50 at 4 days ([2]; Table 1a, day 4, XTT) [nM] | EC50 ([1]; Renilla, NL43, Table 1a) [nM] | EC50 ([1]; Renilla, NL43, Table 1) [nM] | CC50 at 4 days ([2]; Table 1, day 4, XTT) [nM] | also measured |
| --- | --- | --- | --- | --- | --- |
| Cn1nc(NS(C)(=O)=O)c2c(Cl)ccc(-n3c([C@H](Cc4cc(F)cc(F)c4)NC(=O)Cn4nc(C(F)F)c5c4C(F)(F)[C@@H]4C[C@H]54)nc4cc(C(C)(C)S(C)(=O)=O)ccc4c3=O)c21 (mixture of isomers) [Example 207, N—((S)-1-(3-(4-chloro-1-methyl-3-(methylsulfonamido)-1H-indazol-7-yl)-7-(2-(methylsulfonyl)propan-2-yl)-4-oxo-3,4-dihydroquinazolin-2-yl)-2-(3,5-difluorophenyl)ethyl)-2-((3bS,4aR)-3-(difluoromethyl)-5,5-difluoro-3b,4,4a,5-tetrahydro-1H-cyclopropa[3,4]cyclopenta[1,2-c]pyrazol-1-yl)acetamide] | > 1000 |  |  |  | EC50 ([1]; Table 1a): 4.49 nM |
| Cc1ccc(C)c2c(=O)n(-c3ccc(Cl)c4c(NS(C)(=O)=O)nn(C)c34)c(C(Cc3cc(F)cc(F)c3)NC(=O)Cn3nc(C(F)F)c4c3C(F)(F)[C@@H]3C[C@H]43)nc12 (mixture of isomers) [Example 67] | > 1000 | 183 |  |  |  |
| Cc1cc(C)c2c(=O)n(-c3ccc(Cl)c4c(NS(C)(=O)=O)nn(C)c34)c([C@H](Cc3cc(F)cc(F)c3)NC(=O)Cn3nc(C(F)F)c4c3C(F)(F)[C@@H]3C[C@H]43)nc2n1 [Example 42.2, N-[(1S)-1-[3-(4-chloro-3-methanesulfonamido-1-methyl-1H-indazol-7-yl)-5,7-dimethyl-4-oxo-3H,4H-pyrido[2,3-d]pyrimidin-2-yl]-2-(3,5-difluorophenyl)ethyl]-2-[(2S,4R)-9-(difluoromethyl)-5,5-difluoro-7,8-diazatricyclo[4.3.0.0^2,4]nona-1(6),8-dien-7-yl]acetamide] | > 10000 | 0.016 |  |  |  |
| CS(=O)(=O)Nc1nn(CC(F)F)c2c(-n3c([C@H](Cc4cc(F)cc(F)c4)NC(=O)Cn4nc(C(F)F)c5c4C(F)(F)C4CC54)nc4ncccc4c3=O)ccc(Cl)c12 (single isomer, unassigned) [Example 14.1] |  |  | 49 | > 10000 |  |
| O=C(Cn1nc(C(F)F)c2c1C(F)(F)[C@@H]1C[C@H]21)N[C@@H](Cc1cc(F)cc(F)c1)c1nc2cn[nH]c2cc1-c1ccc2ccnn2c1 [Example 10.36, 2-((3bS,4aR)-3-(difluoromethyl)-5,5-difluoro-3b,4,4a,5-tetrahydro-1H-cyclopropa[3,4]cyclopenta[1,2-c]pyrazol-1-yl)-N—((S)-2-(3,5-difluorophenyl)-1-(6-(pyrazolo[1,5-a]pyridin-6-yl)-1H-pyrazolo[4,3-b]pyridin-5-yl)ethyl)acetamide] |  |  | 80 | > 10000 |  |
| CS(=O)(=O)NC(=O)c1cc(-c2cc3[nH]ncc3nc2[C@H](Cc2cc(F)cc(F)c2)NC(=O)Cn2nc(C(F)F)c3c2C(F)(F)[C@@H]2C[C@H]32)ccc1Cl [Example 10.18, 2-Chloro-5-(5-((S)-1-(2-((3bS,4aR)-3-(difluoromethyl)-5,5-difluoro-3b,4,4a,5-tetrahydro-1H-cyclopropa[3,4]cyclopenta[1,2-c]pyrazol-1-yl)acetamido)-2-(3,5-difluorophenyl)ethyl)-1H-pyrazolo[4,3-b]pyridin-6-yl)-N-(methylsulfonyl)benzamide] |  |  | 670 | > 10000 |  |
| CN(C)S(=O)(=O)c1ccc(-n2c([C@H](Cc3cc(F)cc(F)c3)NC(=O)Cn3nc(C(F)F)c4c3C(F)(F)[C@@H]3C[C@H]43)nc3ncccc3c2=O)cc1 [Example 32, 2-[(2S,4R)-9-(difluoromethyl)-5,5-difluoro-7,8-diazatricyclo[4.3.0.0^2,4]nona-1(6),8-dien-7-yl]-N-[(1S)-2-(3,5-difluorophenyl)-1-{3-[4-(dimethylsulfamoyl)phenyl]-4-oxo-3H,4H-pyrido[2,3-d]pyrimidin-2-yl}ethyl]acetamide] | > 10000 | 1.1 |  |  |  |
| Cn1nc(NS(C)(=O)=O)c2c(Cl)ccc(-n3c([C@H](Cc4cc(F)cc(F)c4)NC(=O)Cn4nc(C(F)F)c5c4C(F)(F)[C@@H]4C[C@H]54)nc4cccc(F)c4c3=O)c21 (single isomer, unassigned) [Example 19] |  |  | 130 | > 8000 |  |
| NS(=O)(=O)c1ccc(-c2cc3[nH]ncc3nc2[C@H](Cc2cc(F)cc(F)c2)NC(=O)Cn2nc(C(F)F)c3c2C(F)(F)[C@@H]2C[C@H]32)cc1 [Example 24, 2-((3bS,4aR)-3-(difluoromethyl)-5,5-difluoro-3b,4,4a,5-tetrahydro-1H-cyclopropa[3,4]cyclopenta[1,2-c]pyrazol-1-yl)-N—((S)-2-(3,5-difluorophenyl)-1-(6-(4-sulfamoylphenyl)-1H-pyrazolo[4,3-b]pyridin-5-yl)ethyl)acetamide] | > 10000 | 1370 |  |  |  |
| Cn1nc(NS(C)(=O)=O)c2c(Cl)ccc(-n3c([C@H](Cc4cc(F)cc(F)c4)NC(=O)Cn4nc(C(F)F)c5c4C(F)(F)[C@@H]4C[C@H]54)nc4cc(C(F)(F)F)ccc4c3=O)c21 (single isomer, unassigned) [Example 137] | > 1000 |  |  |  | EC50 ([1]; Table 1a): 9.89 nM |
| O=C(Cc1c[nH]c2ccc(O)cc12)N[C@@H](Cc1cc(F)cc(F)c1)c1nc2ncccc2c(=O)n1-c1ccc2scnc2c1 [Example 10.23] |  |  | 2.7 | > 10000 |  |
| COc1ccc(-n2c([C@H](Cc3cc(F)cc(F)c3)NC(=O)Cn3nc(C(F)F)c4c3C(F)(F)[C@@H]3C[C@H]43)nc3ccccc3c2=O)cc1 [Example 10.31] |  |  | 18 | > 10000 |  |
| NC(=O)c1cc(-c2cc3[nH]ncc3nc2[C@H](Cc2cc(F)cc(F)c2)NC(=O)Cn2nc(C(F)F)c3c2C(F)(F)[C@@H]2C[C@H]32)ccc1F [Example 10.6, 5-(5-((S)-1-(2-((3bS,4aR)-3-(difluoromethyl)-5,5-difluoro-3b,4,4a,5-tetrahydro-1H-cyclopropa[3,4]cyclopenta[1,2-c]pyrazol-1-yl)acetamido)-2-(3,5-difluorophenyl)ethyl)-1H-pyrazolo[4,3-b]pyridin-6-yl)-2-fluorobenzamide] |  |  | 16 | > 10000 |  |
| Cn1nc(NS(C)(=O)=O)c2c(Cl)ccc(-c3cc4[nH]ccc4nc3C(Cc3cc(F)cc(F)c3)NC(=O)Cn3nc(C(F)F)c4c3C(F)(F)[C@@H]3C[C@H]43)c21 (single isomer, unassigned) [Example 5.1] |  |  |  | > 10000 | EC50 ([1]; Table 1): 220 nM |
| CC(C)c1ccc(-n2c([C@H](Cc3cc(F)cc(F)c3)NC(=O)Cn3nc(C(F)F)c4c3C(F)(F)[C@@H]3C[C@H]43)nc3ncccc3c2=O)cc1 [Example 35, 2-[(2S,4R)-9-(difluoromethyl)-5,5-difluoro-7,8-diazatricyclo[4.3.0.0^2,4]nona-1(6),8-dien-7-yl]-N-[(1S)-2-(3,5-difluorophenyl)-1-{4-oxo-3-[4-(propan-2-yl)phenyl]-3H,4H-pyrido[2,3-d]pyrimidin-2-yl}ethyl]acetamide] | 1580 | 16.3 |  |  |  |
| O=C(Cn1nc(C(F)F)c2c1C(F)(F)[C@@H]1C[C@H]21)N[C@@H](Cc1cc(F)cc(F)c1)c1nc2cc[nH]c2cc1-c1ccc(S(=O)(=O)N2CCOCC2)cc1 [Example 65, 2-((3bS,4aR)-3-(difluoromethyl)-5,5-difluoro-3b,4,4a,5-tetrahydro-1H-cyclopropa[3,4]cyclopenta[1,2-c]pyrazol-1-yl)-N—((S)-2-(3,5-difluorophenyl)-1-(6-(4-(morpholinosulfonyl)phenyl)-1H-pyrrolo[3,2-b]pyridin-5-yl)ethyl)acetamide] | 2000 | 2.03 |  |  |  |
| Cn1nc(NS(C)(=O)=O)c2c(Cl)ccc(-n3c([C@H](Cc4cc(F)cc(F)c4)NC(=O)Cn4nc(C(F)F)c5c4C(F)(F)[C@@H]4C[C@H]54)nc4cc(F)ccc4c3=O)c21 [Example 18, N—((S)-1-(3-(4-chloro-1-methyl-3-(methylsulfonamido)-1H-indazol-7-yl)-7-fluoro-4-oxo-3,4-dihydroquinazolin-2-yl)-2-(3,5-difluorophenyl)ethyl)-2-((3bS,4aR)-3-(difluoromethyl)-5,5-difluoro-3b,4,4a,5-tetrahydro-1H-cyclopropa[3,4]cyclopenta[1,2-c]pyrazol-1-yl)acetamide] |  |  | 36 | > 10000 |  |
| N#Cc1cnc2nc([C@H](Cc3cc(F)cc(F)c3)NC(=O)Cn3nc(C(F)F)c4c3C(F)(F)[C@@H]3C[C@H]43)n(-c3ccc(C4CC4)cc3)c(=O)c2c1 [Example 39, N-[(1S)-1-[6-cyano-3-(4-cyclopropylphenyl)-4-oxo-3H,4H-pyrido[2,3-d]pyrimidin-2-yl]-2-(3,5-difluorophenyl)ethyl]-2-[(2S,4R)-9-(difluoromethyl)-5,5-difluoro-7,8-diazatricyclo[4.3.0.0^2,4]nona-1(6),8-dien-7-yl]acetamide] | 2000 | 3.76 |  |  |  |
| CCOc1ccc2c(=O)n(-c3ccc(Cl)c4c(NS(C)(=O)=O)nn(C)c34)c([C@H](Cc3cc(F)cc(F)c3)NC(=O)Cn3nc(C(F)F)c4c3C(F)(F)[C@@H]3C[C@H]43)nc2n1 (mixture of isomers) [Example 60.2, N-[(1S)-1-[3-(4-chloro-3-methanesulfonamido-1-methyl-1H-indazol-7-yl)-7-ethoxy-4-oxo-3H,4H-pyrido[2,3-d]pyrimidin-2-yl]-2-(3,5-difluorophenyl)ethyl]-2-[(2S,4R)-9-(difluoromethyl)-5,5-difluoro-7,8-diazatricyclo[4.3.0.0^2,4]nona-1(6),8-dien-7-yl]acetamide] | > 1000 | 0.0174 |  |  |  |

Source: patent US10954252B1, “Inhibitors of human immunodeficiency virus replication” (ViiV HEALTHCARE UK (NO.5) LIMITED, priority 2017, dated 2021)
